Laboratory results taken from ChEMBL document CHEMBL1124810, “Synthesis and anti-HIV evaluation of 2',3'-dideoxyribo-5-chloropyrimidine analogues: reduced toxicity of 5-chlorinated 2',3'-dideoxynucleosides” (1990).

Legend:
Type in all cases: functional
[1] = test system: Human immunodeficiency virus 1; experiment: Effective dose achieving 50% protection of MT-4 cells against the cytopathic effect of HIV; conditions: Human immunodeficiency virus 1, MT4; read-out: ED50 (the source's name)
MT4 [2] = experiment: Cytotoxic dose required to reduce the viability of normal uninfected MT-4 cells by 50%; conditions: Homo sapiens, read-out: CD50 (the source's name)
MT4 [3] = experiment: Selectivity index of CD50 to ED50 of MT-4 cells

Compound	EC50 [1]	CC50 (MT4 [2])	Selectivity index (MT4 [3])
O=c1ccn(C2CCC(CO)O2)c(=O)[nH]1 (configuration not stated)	210 µM	> 625 µM	>3
O=c1[nH]c(=O)n([C@H]2C[C@H](F)[C@@H](CO)O2)cc1Cl [RALURIDINE]	0.38 µM	–	1408
O=c1ccn([C@H]2C=C[C@@H](CO)O2)c(=O)[nH]1	> 20 µM	39 µM	<2
[N-]=[N+]=N[C@@H]1CC(n2cc(Cl)c(=O)[nH]c2=O)O[C@@H]1CO (some centres not stated)	0.72 µM	213 µM	296
Nc1ccn([C@H]2C=C[C@@H](CO)O2)c(=O)n1	0.13 µM	7.9 µM	61
Cc1cn([C@H]2C=C[C@@H](CO)O2)c(=O)[nH]c1=O [STAVUDINE]	0.05 µM	19 µM	380
O=c1[nH]c(=O)n([C@H]2C=C[C@@H](CO)O2)cc1Cl	> 20 µM	44 µM	<2.2
Cc1cn(/C=C/C(O)C(O)CO)c(=O)[nH]c1=O (configuration not stated)	475 µM	> 500 µM	>1
Cc1cn([C@H]2C[C@H](N=[N+]=[N-])[C@@H](CO)O2)c(=O)[nH]c1=O [ZIDOVUDINE]	0.003 µM	4.81 µM	1603

Now from value to compound, other results behind:

EC50 [1]	Compound	CC50 (MT4 [2])	Selectivity index (MT4 [3])
81 µM	O=c1[nH]c(=O)n(C2CCC(CO)O2)cc1Cl (configuration not stated)	> 500 µM	>6
> 500 µM	Nc1nc(=O)n(C2CCC(CO)O2)cc1Cl (configuration not stated)	> 500 µM	–
9 µM	[N-]=[N+]=N[C@@H]1CC(n2cc(Cl)c(N)nc2=O)O[C@@H]1CO (some centres not stated)	877 µM	97
7.6 µM	[N-]=[N+]=N[C@H]1C[C@H](n2ccc(N)nc2=O)O[C@@H]1CO	160 µM	21
22 µM	Nc1nc(=O)n([C@H]2C=C[C@@H](CO)O2)cc1Cl	185 µM	8.4
16 µM	Nc1ccn(C2C[C@@H](F)[C@@H](CO)O2)c(=O)n1 (some centres not stated)	26 µM	1.6
0.06 µM	O=c1ccn(C2C[C@@H](F)[C@@H](CO)O2)c(=O)[nH]1 (some centres not stated)	1.1 µM	18
0.43 µM	[N-]=[N+]=N[C@H]1C[C@H](n2ccc(=O)[nH]c2=O)O[C@@H]1CO [NAVURIDINE]	39 µM	90
0.3 µM	Nc1ccn([C@H]2CC[C@@H](CO)O2)c(=O)n1 [ZALCITABINE]	40 µM	120
26 µM	Nc1nc(=O)n(C2C[C@@H](F)[C@@H](CO)O2)cc1Cl (some centres not stated)	> 1000 µM	>38
> 500 µM	O=c1ccn(/C=C/C(O)C(O)CO)c(=O)[nH]1 (configuration not stated)	> 500 µM	–
